By inhibition in vivo is commonly meant the drop in the measured response relative to a control, in per cent. Read a low inhibition in vivo as a weak effect.

Like-named read-outs stand apart in the source and are kept apart here.

For assay [1], the system named is Phosphorylation of ERK1/2 in AsPC-1 cells. The assay is described as follows: Phospho-ERK1/2 MSD Assay. It is filed as cell-based, human. The conditions noted are these: read-out: 2 h p-ERK (AsPC-1 cells), IC50. A digest of the protocol: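 Read-out: MSD electrochemiluminescent detection of phosphorylated ERK1/2 in whole-cell lysates, fitted to a 4-parameter logistic curve for IC50. Prior to lysis, AsPC-1 cells (25,000 per well) received a 2 h compound dose-response at 37 °C.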

The subject of assay [2] is p-ERK in PANC 04.03 tumor-bearing mice. The assay is described as follows: Tumor Pharmacodynamic Assay (p-ERK inhibition in PANC 04.03 tumors). The class given is in vivo. The conditions noted are these: Mus musculus; PANC 04.03 tumor-bearing female athymic nude mice; single oral dose 100 mg/kg; tumors harvested 2 hr later; relative to vehicle group. The method, then:
Tumor Pharmacodynamic Assays
Inhibitor pharmacodynamic effects were assessed in PANC 04.03 tumor-bearing mice. PANC 04.03 tumor cells (5.0E+06 cells) were injected subcutaneously into the flank of female athymic nude mice in a mixture with Matrigel (BD Bioscience). Mice received a single oral dose of either vehicle or inhibitor (100 mg/kg) when the average tumor size reached -300-600 mm^3 (n=3/group) and harvested 2 hours later. Tumor samples were collected, snap frozen, and processed for analysis by pulverizing with a cryoPREP® Dry Impactor (Covaris). Pulverized samples were resuspended in RIPA lysis buffer containing protease and phosphatase inhibitors and homogenized. Cleared lysates were analyzed using phospho-ERK1/2 and total ERK1/2 whole cell lysate kits (Meso Scale Discovery) according to the manufacturer's protocol. Phospho-ERK1/2 signal was normalized to total ERK1/2 signal for a given sample, and percent inhibition of p-ERK was calculated relative to the vehicle group.

Assay [3] concerns the target His-tagged KRAS G12D protein (Homo sapiens (Human), UniProt P01116, G12D). Put plainly: KRAS G12D TR-FRET Assay. The class given is binding. The conditions noted are these: read-out: KRAS G12D Binding IC50. An outline of the steps: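 His-tagged KRAS G12D (diluted to 20 nM in pH 7.4 HEPES buffer with 10 mM MgCl2 and 10 μM GDP) was preincubated with titrated compound for 30 min at room temperature. Biotinylated KRPep-2d peptide (diluted to 20 nM) was then added for 1 h, and displacement was monitored by TR-FRET.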
For orientation: TR-FRET usually uses a lanthanide donor and a delayed reading to cut background.

For assay [4], the target named is GDP-bound KRAS protein (aa 1-169), containing both G12D and C118A amino acid substitutions (Homo sapiens (Human), UniProt P01116, C118A/G12D). The assay is described as follows: KRAS G12D Coupled Nucleotide Exchange Assay. The conditions noted are these: read-out: KRAS G12D Coupled Exchange IC50. The class given is biochemical.
GDP-bound KRAS protein (aa 1-169), containing both G12D and C118A amino acid substitutions, sequence (P01116 other isoform, or with tags, fused parts or gaps G12D/C118A): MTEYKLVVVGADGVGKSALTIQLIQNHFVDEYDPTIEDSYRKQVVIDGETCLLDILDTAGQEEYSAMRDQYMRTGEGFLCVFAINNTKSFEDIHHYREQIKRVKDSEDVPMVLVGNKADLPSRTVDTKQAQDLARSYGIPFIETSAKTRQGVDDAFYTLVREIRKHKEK
The test system of another assay is AsPC-1 cells. Put plainly: AsPC-1 CTG Assay (CellTiter-Glo cell viability). The class given is cell-based, human. The conditions noted are these: AsPC-1, 72 h, first value of the cell, read-out: G12D/C/V Cell Proliferation CTG (72 h) AsPC-1. An outline of the steps:
(§1)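 Human pancreatic AsPC-1 or colon SW620 cells in RPMI 1640 with 10% FBS, seeded overnight, then exposed to serially diluted compound for 72 h at 37 °C. CellTiter-Glo luminescence normalized to DMSO control; IC50 from a 4-parameter logistic model.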
Background: ATP-based viability assays read luminescence as a measure of living cells.

The subject of the next assay is MIA PaCa-2 cells. Put plainly: MIA PaCa-2 CTG Assay (CellTiter-Glo cell viability). The conditions noted are these: Mia PaCa-2, 72 h, second value of the cell, read-out: G12D/C/V Cell Proliferation CTG (72 h) Mia PaCa-2. It is filed as cell-based, human. An outline of the steps: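 Human pancreatic carcinoma cells in RPMI 1640 with 10% FBS, seeded at 1.67E+04 cells/mL and left overnight, were treated with serially diluted compound for 72 h at 37° C, 5% CO2. Viability was read by CellTiter-Glo luminescence normalized to DMSO; IC50 came from a 4-parameter logistic fit.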

In another assay the test system is SW620 cells. The assay is described as follows: SW620 CTG Assay (CellTiter-Glo cell viability). The conditions noted are these: SW620, 72 h, third value of the cell, read-out: G12D/C/V Cell Proliferation CTG (72 h) SW620. It is filed as cell-based, human. An outline of the steps: as §1

His-tagged KRAS G12D protein, sequence (P01116 other isoform, or with tags, fused parts or gaps G12D): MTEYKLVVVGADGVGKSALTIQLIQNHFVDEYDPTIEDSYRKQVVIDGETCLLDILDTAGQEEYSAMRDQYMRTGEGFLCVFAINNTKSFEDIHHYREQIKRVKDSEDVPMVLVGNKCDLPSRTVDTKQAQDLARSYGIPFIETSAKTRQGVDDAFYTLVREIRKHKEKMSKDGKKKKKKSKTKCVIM

Regarding `C[C@@]12CCCN(C1)c1nc(OC[C@@]34CCCN3C[C@H](F)C4)nc3c(F)c(ncc13)-c1cccc3ccc(F)c(c13)CCCC(=O)N2` [Example 7, (15R)-22,31-Difluoro-8-(((2R,7aS)-2-fluorotetrahydro-1H-pyrrolo[1,2-a]pyrrol-7a(5H)-yl)methoxy)-15-methyl-3,7,9,11,16-pentaazahexacyclo[19.7.1.1˜2,6˜.1˜11,15˜.0˜5,10˜.0˜25,29˜]hentriaconta-1(28),2(31),3,5,7,9,21,23,25(29),26-decaen-17-one bis(2,2,2-trifluoroacetate)], the IC50 in assay [1] (Homo sapiens, ASPC1, 2 h) amounted to 260 nM; in assay [3], 15 nM; in assay [4], 15 nM. Also, 100 mg/kg produced 21% inhibition in vivo in assay [2].
Turning to `Fc1c2ncc3c(nc(OC[C@@]45CCCN4C[C@H](F)C5)nc13)N1CCCCC(COCCCCc3c(Cl)cc4[nH]ncc4c3-2)C1` (stereo partly shown) [Example 141], the IC50 in assay [1] (Homo sapiens, ASPC1, 2 h) was 6 nM; in assay [3] it was 2 nM; with AsPC-1 cells (Homo sapiens, ASPC1, 72 h), 120 nM; in the assay with MIA PaCa-2 cells (Homo sapiens), 20 nM; in the assay on SW620 cells (Homo sapiens, SW-620), 20.2 nM; in assay [4], 1 nM.
With `Fc1c2ncc3c(nc(OC[C@@]45CCCN4C[C@H](F)C5)nc13)N1CCC[C@@](F)(COCCCCc3c(Cl)cc4[nH]ncc4c3-2)C1` [Example 151, (17S)-9-chloro-17,30-difluoro-24-(((2R,7aS)-2-fluorotetrahydro-1H-pyrrolo[1,2-a]pyrrol-7a(5H)-yl)methoxy)-15-oxa-5,6,21,23,25,29-hexaazahexacyclo[24.3.1.1~17,21~.0~2,10~.0~3,7~.0~22,27~]hentriaconta-1(30),2,4,7,9,22,24,26,28-nonaene], the IC50 was found to be 13 nM in assay [1] (Homo sapiens, ASPC1, 2 h); 4 nM in assay [3]; 200 nM with AsPC-1 cells (Homo sapiens, ASPC1, 72 h); 70 nM in the assay with MIA PaCa-2 cells (Homo sapiens); 38.7 nM with SW620 cells (Homo sapiens, SW-620); 2 nM in assay [4].
Take `O=C1OCCCc2c(Cl)cc3[nH]ncc3c2-c2ncc3c(nc(OC[C@@]45CCCN4C[C@H](F)C5)nc3c2F)N2CC[C@H]3CCN1[C@H]3C2` [Example 177, (28S,32R)-18-chloro-33-fluoro-4-(((2R,7aS)-2-fluorotetrahydro-1H-pyrrolo[1,2-a]pyrrol-7a(5H)-yl)methoxy)-23-oxa-1,3,5,9,14,15,25-heptaazaheptacyclo[23.5.2.1~6,10~.0~2,7~.0~11,19~.0~12,16~.0~28,32~]tritriaconta-2,4,6,8,10(33),11,13,16,18-nonaen-24-one]: the IC50 in assay [1] (Homo sapiens, ASPC1, 2 h) amounted to 16.3 nM; in assay [3], 3 nM; in the assay with AsPC-1 cells (Homo sapiens, ASPC1, 72 h), 178 nM; in the assay on MIA PaCa-2 cells (Homo sapiens), 100 nM; in the assay on SW620 cells (Homo sapiens, SW-620), 39 nM; in assay [4] it was 3 nM.
Take `Cc1cc2[nH]ncc2c2c1CCCOC(=O)O[C@]1(C)COCCN(C1)c1nc(OC[C@@H]3CCCN3C)nc3c(F)c-2ncc13` [Example 183, (26S)-32-fluoro-18,26-dimethyl-4-(((2S)-1-methyl-2-pyrrolidinyl)methoxy)-23,25,28-trioxa-1,3,5,9,14,15-hexaazahexacyclo[24.4.1.1~6,10~.0~2,7~.0~11,19~.0~12,16~]dotriaconta-2,4,6,8,10(32),11,13,16,18-nonaen-24-one]: the IC50 in assay [1] (Homo sapiens, ASPC1, 2 h) is 49.3 nM; in assay [3], 8 nM; with AsPC-1 cells (Homo sapiens, ASPC1, 72 h) it was 164 nM; with MIA PaCa-2 cells (Homo sapiens), 50 nM; in the assay on SW620 cells (Homo sapiens, SW-620), 44 nM; in assay [4] it was 4 nM.
Take `O=C1OCCCc2c(Cl)cc3[nH]ncc3c2-c2ncc3c(nc(OCC45CCCN4CCC5)nc3c2F)N2CCOC[C@H](C2)O1` [Example 198, (26S)-18-chloro-32-fluoro-4-(tetrahydro-1H-pyrrolo[1,2-a]pyrrol-7a(5H)-ylmethoxy)-23,25,28-trioxa-1,3,5,9,14,15-hexaazahexacyclo[24.4.1.1~6,10~.0~2,7~.0~11,19~.0~12,16~]dotriaconta-2,4,6,8,10(32),11,13,16,18-nonaen-24-one]: the IC50 stood at 8.1 nM in assay [1] (Homo sapiens, ASPC1, 2 h); 2 nM in assay [3]; 108 nM in the assay on AsPC-1 cells (Homo sapiens, ASPC1, 72 h); 16 nM in the assay on MIA PaCa-2 cells (Homo sapiens); 14 nM in the assay on SW620 cells (Homo sapiens, SW-620); 1 nM in assay [4].
With `Fc1cc2[nH]ncc2c2c1CCCCOC[C@H]1CCCCN(C1)c1nc(OC[C@@]34CCCN3C[C@H](F)C4)nc3c(F)c-2ncc13` [Example 240, (26S)-18,32-difluoro-4-(((2R,7aS)-2-fluorotetrahydro-1H-pyrrolo[1,2-a]pyrrol-7a(5H)-yl)methoxy)-24-oxa-1,3,5,9,14,15-hexaazahexacyclo[24.4.1.1~6, 10~.0~2,7~.0~11,19~.0~12,16~]dotriaconta-2,4,6(32),7,9,11,13,16,18-nonaene], the IC50 in assay [1] (Homo sapiens, ASPC1, 2 h) came to 21.9 nM; in assay [3], 3 nM; in the assay on AsPC-1 cells (Homo sapiens, ASPC1, 72 h), 230 nM; in the assay with MIA PaCa-2 cells (Homo sapiens) it was 140 nM; in the assay on SW620 cells (Homo sapiens, SW-620), 80 nM; in assay [4], 2 nM.
For `Fc1c2ncc3c(nc(OC[C@@]45CCCN4C[C@H](F)C5)nc13)N1CCC[C@]3(C1)C[C@H](C3)OCCCCc1c(Cl)cc3[nH]ncc3c1-2` [Example 260, (1S,3R)-10-Chloro-32-fluoro-24-(((2R,7aS)-2-fluorotetrahydro-1H-pyrrolo[1,2-a]pyrrol-7a(5H)-yl)methoxy)-4-oxa-13,14,19,23,25,27-hexaazaheptacyclo[25.3.1.1˜1,3˜.1˜18,22˜.0˜9,17˜.0˜12,16˜.0˜21,26˜]tritriaconta-9,11,14,16,18(32),19,21,23,25-nonaene bis(2,2,2-trifluoroacetate)], the IC50 amounted to 3.2 nM in assay [1] (2 h); 4 nM in assay [3]; 40 nM in the assay on AsPC-1 cells; 26 nM with MIA PaCa-2 cells; 8 nM with SW620 cells; 2 nM in assay [4].
On to `O=C1OCCCc2c(Cl)cc3[nH]ncc3c2-c2ncc3c(nc(OC[C@@]45CCCN4C[C@H](F)C5)nc3c2F)N2CCOC[C@](CF)(C2)O1` [Example 311, (26S)-18-chloro-32-fluoro-26-(fluoromethyl)-4-(((2R,7aS)-2-fluorotetrahydro-1H-pyrrolo[1,2-a]pyrrol-7a(5H)-yl)methoxy)-23,25,28-trioxa-1,3,5,9,14,15-hexaazahexacyclo[24.4.1.1~6,10~.0~2,7~.0~11,19~.0~12,16~]dotriaconta-2,4,6(32),7,9,11,13,16,18-nonaen-24-one], for which the IC50 in assay [1] (Homo sapiens, ASPC1, 2 h) turned out to be 4.2 nM; in assay [3], 5 nM; in the assay on AsPC-1 cells (Homo sapiens, ASPC1, 72 h) it was 36 nM; in the assay on MIA PaCa-2 cells (Homo sapiens) it was 7 nM; in the assay with SW620 cells (Homo sapiens, SW-620), 6 nM; in assay [4], 3 nM.
`O=C1OCCc2c(Cl)cc3[nH]ncc3c2-c2ncc3c(nc(OC[C@@]45CCCN4C[C@H](F)C5)nc3c2F)N2CCOC[C@]3(C2)C[C@H](C3)O1` [Example 316, (1R,3R)-10-chloro-33-fluoro-24-(((2R,7aS)-2-fluorotetrahydro-1H-pyrrolo[1,2-a]pyrrol-7a(5H)-yl)methoxy)-4,6,30-trioxa-13,14,19,23,25,27-hexaazaheptacyclo[25.4.1.1~1,3~.1~18,22~.0~9,17~.0~12,16~.0~21,26~]tetratriaconta-9,11,14,16,18(33),19,21,23,25-nonaen-5-one]: the IC50 was 6.7 nM in assay [1] (Homo sapiens, ASPC1, 2 h); 4 nM in assay [3]; 54 nM with AsPC-1 cells (Homo sapiens, ASPC1, 72 h); 13 nM with MIA PaCa-2 cells (Homo sapiens); 10 nM in the assay on SW620 cells (Homo sapiens, SW-620); 3 nM in assay [4].

For the origin of these results see patent US20240294551A1 (AMGEN INC., priority 2022, published 2024).
